These results are taken from ChEMBL document CHEMBL5226286, “The application of isatin-based multicomponent-reactions in the quest for new bioactive and druglike molecules” (Eur J Med Chem, 2021).

Experiment [1] deals with Tobacco mosaic virus. In words: Antiviral activity against Tobacco mosaic virus assessed as inactivation effect relative to control. The experiment is classed as functional.
Experiment [2] has as its system Tobacco mosaic virus. In words: Antiviral activity against Tobacco mosaic virus assessed as curative effect relative to control. Type of experiment: functional.
Experiment [3] concerns Tobacco mosaic virus. In words: Antiviral activity against Tobacco mosaic virus assessed as protection effect relative to control. Type of experiment: functional.
Experiment [4] relates to MCF7. In words: Cytotoxicity against human MCF7 cells. Type of experiment: functional, cell-based.
The test system of experiment [5] is A549. Briefly: Cytotoxicity against human A549 cells. The experiment is classed as functional, cell-based.
For experiment [6], the system named is HeLa. Briefly: Cytotoxicity against human HeLa cells. The experiment is classed as functional, cell-based.
Experiment [7] concerns Geotrichum candidum. Briefly: Antifungal activity against Geotrichum candidum RCMB 05097. The experiment is classed as functional.
For experiment [8], the system named is Geotrichum candidum. In words: Antifungal activity against Geotrichum candidum RCMB 05097 assessed as zone of inhibition. Type of experiment: functional.
In experiment [9] the test system is Nakaseomyces glabratus. Briefly: Antifungal activity against Candida glabrata. The experiment is classed as functional.
Experiment [10] concerns Aspergillus fumigatus. In words: Antifungal activity against Aspergillus fumigatus RCMB 02568. Type of experiment: functional.
Experiment [11] deals with Candida albicans. Briefly: Antifungal activity against Candida albicans MTCC 227. Type of experiment: functional.
Experiment [12] deals with Saccharomyces cerevisiae. In words: Antifungal activity against Saccharomyces cerevisiae MTCC 170. Type of experiment: functional.
Experiment [13] has as its system Candida albicans. Briefly: Antifungal activity against Candida albicans. The experiment is classed as functional.
The test system of experiment [14] is Syncephalastrum racemosum. Briefly: Antifungal activity against Syncephalastrum racemosum RCMB 05922. Type of experiment: functional.
For experiment [15], the system named is Syncephalastrum racemosum. Briefly: Antifungal activity against Syncephalastrum racemosum RCMB 05922 assessed as zone of inhibition. Type of experiment: functional.
Experiment [16] concerns Candida tropicalis. Briefly: Antifungal activity against Candida tropicalis. Type of experiment: functional.
Experiment [17] relates to Candida albicans. In words: Antifungal activity against Candida albicans RCMB 05036 assessed as zone of inhibition. Type of experiment: functional.
Experiment [18] relates to Aspergillus fumigatus. In words: Antifungal activity against Aspergillus fumigatus RCMB 02568 assessed as zone of inhibition. Type of experiment: functional.
Experiment [19] has as its system Leishmania major. Briefly: Antileishmanial activity against Leishmania major promastigotes incubated for 72 hrs by micrscopic analysis. Type of experiment: functional.
Experiment [20] relates to Candida albicans. In words: Antifungal activity against Candida albicans RCMB 05036. The experiment is classed as functional.
Experiment [21] concerns Bacillus subtilis. Briefly: Antibacterial activity against Bacillus subtilis. Type of experiment: functional.
Experiment [22] has as its system Escherichia coli. Briefly: microbe, parasite or virus in culture.
In experiment [23] the test system is Staphylococcus aureus. Briefly: microbe, parasite or virus in culture.
In experiment [24] the test system is A549. In words: Antiproliferative activity against human A549 cells. The experiment is classed as functional, cell-based.
In experiment [25] the test system is K562. Briefly: Antiproliferative activity against human K562 cells. Type of experiment: functional, cell-based.
Experiment [26] deals with PC-3. In words: Antiproliferative activity against human PC-3 cells. Type of experiment: functional, cell-based.
Experiment [27] deals with T1, NAD-dependent protein deacetylase sirtuin-2 (Homo sapiens, UniProt Q8IXJ6).
T1 sequence (Q8IXJ6 whole entry): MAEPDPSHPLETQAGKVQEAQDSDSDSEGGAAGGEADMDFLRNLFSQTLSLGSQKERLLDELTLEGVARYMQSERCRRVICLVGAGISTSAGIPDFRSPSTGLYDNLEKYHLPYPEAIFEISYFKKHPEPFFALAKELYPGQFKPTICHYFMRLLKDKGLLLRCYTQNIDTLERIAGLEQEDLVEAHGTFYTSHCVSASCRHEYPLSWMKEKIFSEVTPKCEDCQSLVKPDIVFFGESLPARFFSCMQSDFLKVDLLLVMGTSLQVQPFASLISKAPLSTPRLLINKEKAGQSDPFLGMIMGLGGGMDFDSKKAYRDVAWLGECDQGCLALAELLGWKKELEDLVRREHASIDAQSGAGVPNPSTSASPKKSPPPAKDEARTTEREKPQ
In words: Inhibition of sirtuin 2 (unknown origin).

Experiment [28] has as its system HepG2. Briefly: Antiproliferative activity against human HepG2 cells by MTT reduction assay. The experiment is classed as functional, cell-based. A general note: Tetrazolium assays rely on reduction of a dye to a coloured formazan, in cell work by metabolically active cells.
Experiment [29] has as its system SK-N-SH. Briefly: Antiproliferative activity against human SK-N-SH cells by MTT reduction assay. The experiment is classed as functional, cell-based.
The subject of experiment [30] is MCF7. Briefly: Antiproliferative activity against human MCF7 cells by MTT reduction assay. The experiment is classed as functional, cell-based.
The test system of experiment [31] is HeLa. In words: Cytotoxicity against human HeLa cells incubated for 24 hrs by MTT reduction assay. Type of experiment: functional, cell-based.
Experiment [32] relates to A549. In words: Antiproliferative activity against human A549 cells by MTT reduction assay. Type of experiment: functional, cell-based.
Experiment [33] relates to Staphylococcus aureus. Briefly: Antibacterial activity against Staphylococcus aureus by agar well diffusion method. Type of experiment: functional. (In general: Agar diffusion results depend on both activity and mobility in agar.)
The test system of experiment [34] is Escherichia coli. Briefly: Antibacterial activity against Escherichia coli by agar well diffusion method. The experiment is classed as functional.
Experiment [35] deals with Bacillus subtilis. Briefly: Antibacterial activity against Bacillus subtilis by agar well diffusion method. The experiment is classed as functional.
Experiment [36] relates to MDA-MB-435. Briefly: Antiproliferative activity against human MDA-MB-435 cells. Type of experiment: functional, cell-based.
Experiment [37] relates to HepG2. Briefly: Growth inhibition of human HepG2 cells at 20 micromol relative to control. The experiment is classed as functional. Conditions: dose 20 µmol.
Experiment [38] has as its system HeLa. In words: Growth inhibition of human HeLa cells at 20 micromol relative to control. The experiment is classed as functional. Conditions: dose 20 µmol.
Experiment [39] relates to DU-145. In words: Cytotoxicity against human DU-145 cells incubated for 48 hrs by MTT assay. Type of experiment: functional, cell-based. The following applies: DU-145, 48 h.
Experiment [40] concerns HCT-116. In words: Cytotoxicity against human HCT-116 cells. The experiment is classed as functional, cell-based.
Experiment [41] relates to MDA-MB-231. In words: Growth inhibition of human MDA-MB-231 cells at 20 micromol relative to control. Type of experiment: functional. The following applies: dose 20 µmol.
Experiment [42] concerns SK-OV-3. In words: Antiproliferative activity against human SK-OV-3 cells. The experiment is classed as functional, cell-based.
The subject of experiment [43] is CCRF-CEM. In words: Antiproliferative activity against human CCRF-CEM cells. The experiment is classed as functional, cell-based.

Converted amounts (≈) assume the structure as drawn. A value given as a limit tells only on which side of the number the result lay.

For `COc1ccc([C@@H]2CN(C)[C@]3(C(=O)N(C)c4ccccc43)[C@]23Oc2cc(O)ccc2C3=O)cc1`, the Activity is listed as 55.1% in [1], 47.3% in experiment [2] and 51.2% in experiment [3].
For `CNCC(=O)N[C@@H](CO)C(=O)N[C@H]1[C@H](O)[C@@H](O)[C@H](n2ccc(N)nc2=O)O[C@@H]1C(N)=O` [NINGNANMYCIN] the same measures were 58.8%, 55.9% and 57.1%.
In general, IC50 refers to the point on the concentration scale where inhibition reaches its midpoint. Higher therefore signals lower potency. Turning to `CCOC(=O)C1=C(C(=O)OCC)C2(NC1CC(C)C)C(=O)Nc1ccccc12` (configuration not stated), the IC50 was 5 µM in [4], 4.5 µM in experiment [5] and > 50 µM in experiment [6].
As to `C[C@@H]1[C@H](O)[C@@H](C)/C=C/C=C/C=C/C=C/C=C/C=C/C=C/[C@H](O[C@@H]2O[C@H](C)[C@@H](O)[C@H](N)[C@@H]2O)C[C@@H]2O[C@](O)(C[C@@H](O)C[C@@H](O)[C@H](O)CC[C@@H](O)C[C@@H](O)CC(=O)O[C@H]1C)C[C@H](O)[C@H]2C(=O)O` [AMPHOTERICIN B], the MIC in experiment [7] was found to be 0.015 µg/mL (≈ 0.0162 µM); in experiment [9], 12.5 µg/mL (≈ 13.5 µM); in experiment [10], 0.015 µg/mL (≈ 0.0162 µM); in experiment [11], 100 µg/mL (≈ 108 µM); in experiment [12], 100 µg/mL (≈ 108 µM); in experiment [13], 12.5 µg/mL (≈ 13.5 µM). Besides, the MIC was determined as 1.95 µg/mL (≈ 2.11 µM) in experiment [14], 12.5 µg/mL (≈ 13.5 µM) in experiment [16], 0.49 µM (≈ 0.453 µg/mL) in experiment [19] and 0.06 µg/mL (≈ 0.0649 µM) in experiment [20]. Besides, the “diameter of the inhibition zone (DIZ)” value in experiment [8] is on record as 29 mm; in experiment [15] it was 22.1 mm; in experiment [17] it was 26 mm; in experiment [18] it was 23 mm.
For the compound `Cc1nn(-c2ccccc2)c2c1C1(C(=O)Nc3ccc([N+](=O)[O-])cc31)C1=C(CC(C)(C)CC1=O)O2` (configuration not stated), the MIC in [21] was determined as 64 µg/mL (≈ 136 µM); in experiment [22], 128 µg/mL (≈ 272 µM); in experiment [23] it was 32 µg/mL (≈ 68 µM).
As to `Cc1noc([C@@H]2[C@H]3CCCN3[C@]3(C(=O)N(C)c4ccc(F)cc43)[C@@]23C(=O)N(C)c2ccccc23)c1[N+](=O)[O-]`, the IC50 in experiment [24] turned out to be 39.7 µM; in [25], 25 µM; in experiment [26] it was 51.6 µM.
Consider `O=C(N[C@H](CO)[C@H](O)c1ccc([N+](=O)[O-])cc1)C(Cl)Cl` [CHLORAMPHENICOL], for which the MIC in experiment [21] worked out at 4 µg/mL (≈ 12.4 µM); in [22], 4 µg/mL (≈ 12.4 µM); in [23], 8 µg/mL (≈ 24.8 µM).
In the case of `CCOC(=O)C1=C(N)Oc2cc(C)oc(=O)c2C12C(=O)Nc1ccc(Br)cc12` (configuration not stated), it took 124 µM to reach half-maximal inhibition in experiment [27] (IC50).
Regarding `Cc1cc2c(cc1C)C(Cl)=C(C1C3CCCN3C3(C(=O)Nc4ccc([N+](=O)[O-])cc43)C1C(=O)c1ccccc1)CCC2` (configuration not stated), the IC50 in experiment [28] turned out to be 20 µM; in experiment [29], 11 µM; in experiment [30], 7.3 µM; in experiment [31] it was 3.8 µM; in experiment [32], 5.6 µM.
Consider `CC1(C)CC(=O)C2=C(C1)N(c1ccc(Cl)cc1)C(=O)C21C2=C(Nc3ccccc31)c1ccccc1C2=O` (configuration not stated), for which the MIC is 16 µg/mL (≈ 31.6 µM) in experiment [33], 64 µg/mL (≈ 126 µM) in [34] and 8 µg/mL (≈ 15.8 µM) in experiment [35].
Consider `COc1cccc2c1C(=O)c1c(O)c3c(c(O)c1C2=O)C[C@@](O)(C(=O)CO)C[C@@H]3O[C@H]1C[C@H](N)[C@H](O)[C@H](C)O1` [DOXORUBICIN], for which the IC50 in [36] turned out to be 90 nM; in [28], 5.4 µM; in [29] it was 6.3 µM; in experiment [39], 1800 nM; in experiment [40], 2400 nM. For the same compound, the “growth inhibition (GI)” value in [37] is 79.1%; in experiment [38], 76.1%; in [41], 76%.
As to `Cc1cc2c(cc1C)C(Cl)=C(C1C3CCCN3C3(C(=O)Nc4ccc(I)cc43)C1C(=O)c1ccccc1)CCC2` (configuration not stated), the IC50 in experiment [28] was found to be 8.7 µM; in experiment [29], 5 µM; in [30] it was 8.3 µM; in experiment [31], 3.8 µM; in [32] it was 15.9 µM.
On to `CC1(C)CC(=O)C2=C(C1)N(c1ccccc1)C(=O)C21C2=C(Nc3ccc([N+](=O)[O-])cc31)c1ccccc1C2=O` (configuration not stated), for which the results for the MIC in experiment [33], in [34] and in [35] were 16 µg/mL (≈ 30.9 µM), 128 µg/mL (≈ 247 µM) and 16 µg/mL (≈ 30.9 µM), respectively.
On to `O=C1/C(=C/c2ccccc2)CNC[C@]12[C@@H](c1ccccc1)C1CCCN1[C@]21C(=O)Nc2ccccc21` (some centres not stated), for which the IC50 in experiment [42] amounted to 38.9 µM; in [43] it was 25.2 µM.
In [19], `N=C(N)c1ccc(OCCCCCOc2ccc(C(=N)N)cc2)cc1` [PENTAMIDINE] came in with an MIC of 5.22 µM (≈ 1.78 µg/mL).
In the case of `Cc1ccccc1/C=C1\CNC[C@@]2(C1=O)[C@@H](c1ccccc1C)C1CCCN1[C@]21C(=O)Nc2ccccc21` (some centres not stated), the results for the IC50 in [42] and in experiment [43] were 35.8 µM and 3.6 µM, respectively.
